Molecular target: Carbonic anhydrase 9 (Homo sapiens, UniProt Q16790)
Assay: Inhibition of transmembrane human carbonic anhydrase 9 by stopped flow CO2 hydration assay

SMILES	Ki [nM]
NS(=O)(=O)c1ccc(-n2nnc(C(=O)O)c2-c2cccs2)cc1	1310
CCOC(=O)c1nnn(-c2ccc(S(N)(=O)=O)cc2)c1-c1cccs1	237
NS(=O)(=O)c1ccc(-n2nnc(CO)c2-c2ccccn2)cc1	14.3
CCOC(=O)c1nnn(-c2ccc(S(N)(=O)=O)cc2)c1-c1ccccn1	1420
NNC(=O)c1nnn(-c2ccc(S(N)(=O)=O)cc2)c1-c1ccc(Br)cc1	1350
Cc1ccc(-c2c(C(=O)O)nnn2-c2ccc(S(N)(=O)=O)cc2)cc1	1410
NC(=O)c1nnn(-c2ccc(S(N)(=O)=O)cc2)c1-c1ccc(Br)cc1	256
NS(=O)(=O)c1ccc(-n2nnc(CO)c2-c2ccc(Br)cc2)cc1	1730
NNC(=O)c1nnn(-c2ccc(S(N)(=O)=O)cc2)c1-c1ccc(F)cc1	2450
NNC(=O)c1nnn(-c2ccc(S(N)(=O)=O)cc2)c1-c1ccccn1	2900
CCOC(=O)c1nnn(-c2ccc(S(N)(=O)=O)cc2)c1-c1ccc(F)cc1	633
CCOC(=O)c1nnn(-c2ccc(S(N)(=O)=O)cc2)c1-c1ccc(C)cc1	198
CCOC(=O)c1nnn(-c2ccc(S(N)(=O)=O)cc2)c1-c1ccc(Cl)cc1	1480
NS(=O)(=O)c1ccc(-n2nnc(C(=O)O)c2-c2ccc(Cl)cc2)cc1	716
NNC(=O)c1nnn(-c2ccc(S(N)(=O)=O)cc2)c1-c1ccc(Cl)cc1	909
NS(=O)(=O)c1ccc(-n2nnc(C(=O)O)c2-c2ccc(F)cc2)cc1	1580
NS(=O)(=O)c1ccc(-n2nnc(CO)c2-c2ccc(Cl)cc2)cc1	1210
NNC(=O)c1nnn(-c2ccc(S(N)(=O)=O)cc2)c1-c1cccs1	2830
NC(=O)c1nnn(-c2ccc(S(N)(=O)=O)cc2)c1-c1ccc(Cl)cc1	117

More lines, in order of falling Ki, values ahead:

Ki [nM]	SMILES
2370	NS(=O)(=O)c1ccc(-n2nnc(CO)c2-c2ccc(F)cc2)cc1
2330	Cc1ccc(-c2c(CO)nnn2-c2ccc(S(N)(=O)=O)cc2)cc1
2090	NS(=O)(=O)c1ccc(-n2nnc(C(=O)O)c2-c2ccccn2)cc1
1410	NS(=O)(=O)c1ccc(-n2nnc(C(=O)O)c2-c2ccc(Br)cc2)cc1
738	Cc1ccc(-c2c(C(=O)NN)nnn2-c2ccc(S(N)(=O)=O)cc2)cc1
730	NC(=O)c1nnn(-c2ccc(S(N)(=O)=O)cc2)c1-c1ccccn1
228	CCOC(=O)c1nnn(-c2ccc(S(N)(=O)=O)cc2)c1-c1ccc(Br)cc1
225	NC(=O)c1nnn(-c2ccc(S(N)(=O)=O)cc2)c1-c1cccs1
107	NC(=O)c1nnn(-c2ccc(S(N)(=O)=O)cc2)c1-c1ccc(F)cc1
73	Cc1ccc(-c2c(C(N)=O)nnn2-c2ccc(S(N)(=O)=O)cc2)cc1
71.2	NS(=O)(=O)c1ccc(-n2nnc(CO)c2-c2cccs2)cc1

Source: ChEMBL document CHEMBL4229358, “Synthesis of novel 4-functionalized 1,5-diaryl-1,2,3-triazoles containing benzenesulfonamide moiety as carbonic anhydrase I, II, IV and IX inhibitors” (Eur J Med Chem, 2018)
